Results from patent US20250170114A1, “METHODS OF TREATMENT USING T-TYPE CALCIUM CHANNEL MODULATORS” (Praxis Precision Medicines, Inc., priority 2022, published 2025).

Legend:
[1] = tested on: rat spontaneous locomotor activity (sLMA); assay: Rat spontaneous locomotor activity (sLMA) assay; type: in vivo; details: rats, 0-30 min; compound of Formula (I) 1 mg/kg p.o., propranolol 1 or 3 mg/kg i.p., alone or in combination
Experimental: […] Rat sLMA was measured from 0-30 min (0 minutes is 60 minutes after administration of the compound of Formula (I) and 20 minutes after administration of propranolol).

[2] = tested on: harmaline-induced decrease in travelling distance in male SD rats; assay: Open field test with harmaline in SD rats; type: in vivo, rat; details: harmaline 30 mg/kg, dose of 3 and 10 mg/kg
Experimental: Each of six groups of male SD rats were subjected to a tremor assessment, followed by three ADL-like measures including open field test, rotarod test, and wire grip test after receiving doses of either vehicle, Formula (I), or propranolol, followed by either saline or harmaline, as outlined below in Table 22 below.
Fifteen minutes after the tremor assessment, the rats were subjected to an open field test. FIG. 8 is a bar graph showing the traveling distance in 0-5 minutes (mm) measured in rats that were administered 30 mg/kg harmaline and also administered 10 mg/kg propranolol or 1 mg/kg, 3 mg/kg or 10 mg/kg study drug.

CC(C)(C)NC(=O)CN1CCC(CNC(=O)c2cc(F)cc(Cl)c2)CC1.Cl [Study drug]
total sLMA (total distance travelled) [1]: do not significantly reduce | travelling distance in 0-5 minutes in open field vs vehicle and harmaline only ([2]; listed as Formula (I)): significantly attenuated | travelling distance in 0-5 minutes in open field vs vehicle and harmaline only ([2]; listed as compound of Formula (I)): significantly attenuated decrease
